Values after ≈ are worked out from the molar mass of the structure shown. Like-named read-outs stand apart in the source and are kept apart here.
Legend:
in vitro [1] = format: in vitro ADME; settings: plasma, pH 7.4
Protocol: Plasma protein binding was determined using the Rapid Equilibrium Dialysis (RED) system (Thermo Fisher Scientific, Waltham MA, USA). Compounds were diluted to 10 µM in 50% murine (CD-1), human or Wistar rat plasma (Neo Biotech, Nanterre, France) in PBS pH 7.4 and added to the respective chamber according to the manufacturer’s protocol, followed by addition of PBS pH 7.4 to the opposite chamber. Samples were taken immediately after addition to the plate as well as after 2, 4 and 5 h by mixing 10 µL with 80 µL ice-cold ice-cold […]
(1 picture or pasted object on this page, not shown here) […]
(§1) by addition of 10 µL plasma to samples taken from PBS and vice versa. Samples were stored on ice until the end of the incubation and precipitated protein was removed by centrifugation (15 min, 4 °C, 4,000 g, 2 centrifugation steps). Concentration of the remaining test compound at the different time points was analyzed by HPLC-MS/MS (Vanquish Flex coupled to a TSQ Altis Plus, Thermo Fisher, Dreieich, Germany). […]
Germany). To obtain percent viability for each sample, their ODs were related to those of DMSO controls. At least three independent measurements were performed for each compound. The calculation of CC50 was performed using the nonlinear regression function of GraphPad Prism 10 (GraphPad Software, San Diego, CA, USA).

[2] = Metabolic stability in liver microsomes; settings: Wistar, rat
Rif^R-S. aureus Newman = experiment: microbe, parasite or virus in culture; format: cell-based; settings: Staphylococcus aureus
M^R/V^R-S. aureus Mu50 = experiment: microbe, parasite or virus in culture; format: cell-based; settings: Staphylococcus aureus
wt-M. tuberculosis H37Rv = experiment: microbe, parasite or virus in culture; format: cell-based; settings: Mycobacterium tuberculosis
Cytotoxicity assay (MTT) = format: cell-based; settings: human, HepG2 cells, HepG2, 100 μM
Protocol: as §1, with “Germany). The amount of compound bound to protein was calculated using the equation PPB [%] = 100 – 100 x (amount in buffer chamber/amount in” for “Germany).”
To obtain information regarding the toxicity of test compounds, their impact on the viability of human cells was investigated. HepG2 cells (2x10^4 cells per well) were seeded in 96-well, flat-bottomed culture plates in 100 µL culture medium (DMEM containing 10% fetal calve serum, 1% penicillin-streptomycin). Twenty-four hours after seeding the cells, medium was removed and replaced by medium containing test compounds in a final DMSO concentration of 1%.
Compounds were tested in duplicates at a single concentration or, for CC 50 determination, at 8 concentrations that were prepared via 2-fold serial dilutions in 1% DMSO/medium. Epirubicin and doxorubicin were used as positive controls in serial dilutions starting from 10 µM, and rifampicin was used as a negative control (at 100 µM). […]

M^R -S. aureus N315 = experiment: microbe, parasite or virus in culture; format: cell-based; settings: Staphylococcus aureus
[3] = Metabolic stability in liver microsomes; settings: human
E. coli ΔtolC = experiment: microbe, parasite or virus in culture; format: cell-based; settings: Escherichia coli
in vitro [4] = settings: human, microsomes, Liver microsomes Clint
[5] = Wistar, rat, microsomes, 2 h, 1 µM
in vitro [6] = format: in vitro ADME; settings: Wistar, rat, plasma
Protocol: (§2) To determine stability in plasma, the compound (1 µM) was incubated with pooled CD-1 mouse/human or Wistar rat plasma (Neo Biotech, Nanterre, France). Samples were taken by […]
(§3) 10% methanol/acetonitrile). The plasma stability of procain, propantheline and diltiazem were determined in parallel to confirm the enzymatic activity. Samples were stored on ice until the end of the incubation and precipitated protein was removed by centrifugation (15 min, 4 °C, 4,000 g, two centrifugation steps). Concentration of the remaining test compound at the different time points was analyzed by HPLC-MS/MS (Vanquish Flex coupled to a TSQ Altis Plus, Thermo Fisher, Dreieich, Germany). The plasma stability of procain, propantheline and diltiazem were determined in parallel to confirm the enzymatic activity. […]

in vitro [7] = format: in vitro ADME; settings: plasma
Protocol: Figure S6: Metabolic stability in human liver microsomes with CYP isozyme involvement. (A) Human microsomal metabolism of MXY A (1) and (B) for MXY (8) in presence of 10 µM CYP inhibitors for CYP3A4 (ketoconazole), CYP1A2 (fluvoxamine), CYP2C9 (sulfaphenazole) or CYP2D6 (quinidine). The remaining test compound compared to t=0 min is given. (C) Corresponding half-lives (t1/2s) and fold increase compared to t1/2 of the compound in absence of inhibitors. Values represent means ± standard deviation (SD) of at least 3 independent measurements. *Mean half-life in presence of DMSO represents only assays where direct comparison to CYP inhibitors was performed; Table 2 of the main text includes additional replicates.
as §2, §3

[8] = Metabolic stability in liver microsomes; settings: C57BL/6, mouse
wt-S. aureus Newman = format: cell-based; settings: Staphylococcus aureus
in vitro [9] = settings: Wistar, rat, microsomes
E. faecalis DSM-20478 = format: cell-based; settings: Enterococcus faecalis, DSM20478
in vitro [10] = settings: C57BL/6, mouse, microsomes
in vitro [11] = format: in vitro ADME; settings: mouse, hepatocytes
Protocol: Metabolic stability in mouse hepatocytes
For the evaluation of combined phase I and phase II metabolic stability, the compound (1 μM) was incubated with 0.25 x 10^6 cells/mL of pooled mouse hepatocytes (Xenotech, Kansas City, USA). Cells were thawed in Leibovitz’s L-15 medium without phenol red (ThermoFisher Scientific, Waltham, USA). Briefly, cells were transferred into 50 mL of medium, followed by centrifugation at 55 g for 3 min. Supernatant was discarded and the cell count determined after gently resuspending the cell pellet in 1 mL of medium. Hepatocytes were diluted to 0.5 x 10^6 cells/mL and incubated at 37 °C, 700 rpm for 10 min, to achieve the desired final cell count after addition of an equal volume of test compounds in medium, leading to final test concentration of 1 µM at 1% DMSO. Samples were incubated at 37 °C, for 240 min, 700 rpm and the incubation was stopped after defined time points by precipitation of aliquots in 4 […]
methanol/acetonitrile). The metabolic stability of testosterone, verapamil, ketoconazole and 7-hydroxycoumarine were determined in parallel to confirm the enzymatic activity of mouse hepatocytes. Samples were stored on ice until the end of the incubation and precipitated protein was removed by centrif ugation (15 min, 4 °C, 4. 000 g). […]

[12] = human, 1 µM
[13] = stated as known, reference not given; cited from earlier work
[14] = Stability during large-scale production and isolation; settings: large-scale production, also with exclusion of light
From the text: We initially attempted the large-scale production of furan analog 14.

Row | Compound | fraction unbound at 10 µM (in vitro [1]; CD-1, mouse) | fraction unbound at 10 µM (in vitro [1]; Wistar, rat) | fraction unbound at 10 µM (in vitro [1]; human) | half-life at 1 µM [2] | MIC (Rif^R-S. aureus Newman) | MIC (M^R/V^R-S. aureus Mu50) | MIC (wt-M. tuberculosis H37Rv) | viability at 48 h, 100 µM (Cytotoxicity assay (MTT)) | MIC (M^R -S. aureus N315) | half-life at 1 µM [3] | MIC (E. coli ΔtolC) | microsomal CLint at 1 µM (in vitro [4]) | Remaining amount of parent compound at 120 min [5] | half-life at 1 µM (in vitro [6]) | half-life at 1 µM (in vitro [7]; CD-1, mouse) | half-life at 1 µM (in vitro [7]; human) | half-life at 1 µM [8] | MIC (wt-S. aureus Newman; NEWMAN) | microsomal CLint at 1 µM (in vitro [9]) | MIC (E. faecalis DSM-20478) | also measured
1 | COC(=O)N/C=C/CC[C@@H](C)c1cc(O)c(C(=O)/C(C)=C/C=C(\C)CCC(F)(F)F)c(=O)o1 [MYX (8)] | 0.0036 | 0.0049 | 0.0162 | ~2 h | 2 µg/mL (≈ 4.24 µM) | 1 to 2 µg/mL (≈ 2.12 to 4.24 µM) | 2 µg/mL (≈ 4.24 µM) | 44 ± 9% | 2 to 4 µg/mL (≈ 4.24 to 8.48 µM) | 0.867 ± 0.217 h | 4 µg/mL (≈ 8.48 µM) | 28 µL/min/mg | 49 ± 13% | > 4 h | > 4 h | > 4 h | 1.13 ± 0.117 h | 2 µg/mL (≈ 4.24 µM) | ~11.6 µL/min/mg | > 64 µg/mL | microsomal CLint at 1 µM (in vitro [10]): 21 µL/min/mg; half-life at 1 µM (in vitro [11]): > 4 h; hepatocyte CLint at 1 µM (in vitro [11]): < 3.8 µL/min/1e6 cells
2 | CCC/C(C)=C/C=C(\C)C(=O)c1c(O)cc([C@H](C)CC/C=C/NC(=O)OC)oc1=O [MYX A (1), myxopyronins A] | 0.0026 | 0.0054 | 0.0107 | ~2 h | 2 µg/mL (≈ 4.79 µM) | 1 to 2 µg/mL (≈ 2.4 to 4.79 µM) | 4 µg/mL (≈ 9.58 µM) | 39 ± 6% | 4 µg/mL (≈ 9.58 µM) | 0.122 ± 0.0417 h | 1 to 2 µg/mL (≈ 2.4 to 4.79 µM) | 157 µL/min/mg | 51 ± 12% | > 4 h | > 4 h | > 4 h | 0.317 ± 0.0667 h | 2 to 4 µg/mL (≈ 4.79 to 9.58 µM) | ~11.6 µL/min/mg | > 64 µg/mL | microsomal CLint at 1 µM (in vitro [10]): 76 µL/min/mg; half-life at 1 µM (in vitro [11]): > 4 h; hepatocyte CLint at 1 µM (in vitro [11]): < 3.8 µL/min/1e6 cells; Liver microsomes Clint [12]: 211 ± 37 µL/min/mg
3 | CCCC/C(C)=C/C=C(\C)C(=O)c1c(O)cc([C@H](C)CC/C=C/NC(=O)OC)oc1=O [MYX B (2)] |  |  |  |  |  |  |  |  |  |  |  |  |  |  |  |  |  |  |  |  | half-life in human liver microsomes [13]: 3 min
4 | COC(=O)N/C=C/CC[C@@H](C)c1cc(O)c(C(=O)/C(C)=C/C=C(\C)c2ccoc2)c(=O)o1 [compound 14] |  |  |  |  |  |  |  |  |  |  |  |  |  |  |  |  |  |  |  |  | decomposition during fermentation and isolation [14]: highly susceptible to rapid decomposition
5 | CO[C@H]1/C=C/O[C@@]2(C)Oc3c(C)c(O)c4c(O)c(c(/C=N/N5CCN(C)CC5)c(O)c4c3C2=O)NC(=O)/C(C)=C\C=C\[C@H](C)[C@H](O)[C@@H](C)[C@@H](O)[C@@H](C)[C@H](OC(C)=O)[C@@H]1C [rifampin] |  |  |  |  | > 64 µg/mL |  | 0.03 µg/mL (≈ 0.0365 µM) |  |  |  | 16 µg/mL (≈ 19.4 µM) |  |  |  |  |  |  |  |  |  | MIC (M^R/V^R-S. aureus Mu50; methicillin- and vancomycin-resistant S. aureus Mu50, read-out: MIC): > 64 µg/mL; MIC (M^R -S. aureus N315; methicillin-resistant S. aureus N315, read-out: MIC): 0.0025 µg/mL (≈ 0.00304 µM); MIC (wt-S. aureus Newman; wt-S. aureus Newman, read-out: MIC): 0.005 µg/mL (≈ 0.00608 µM); MIC (E. faecalis DSM-20478; E. faecalis DSM-20478, read-out: MIC): 1 µg/mL (≈ 1.22 µM)

Source: publication PMC12728655, “Engineering an Artificial Myxopyronin Derivative with Enhanced Metabolic Stability via Mutasynthesis” (JACS Au, 2025)
